Results as given in patent US20240150368A1, “ULK INHIBITORS AND METHODS OF USE THEREOF” (Deciphera Pharmaceuticals, LLC, priority 2022, published 2024).

Tests used:
[1] = test system: ULK kinase substrate ATG13 (pS318-ATG13) in A549 (KRAS mutant) cells; assay: pATG13 levels of mutant KRas A549 cells after treatment with ULK inhibitors in combination with trametinib (ELISA); type: cell-based, human
Summary of the method: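 A549 cells grown overnight were treated with a test-compound dose response plus trametinib at 250 nM final (or DMSO) overnight at 37° C. Lysates were assayed by total-ATG13 capture and biotinylated pS318-ATG13 detection ELISA (450 nm minus 540 nm background); % phosphorylation versus controls gave IC50 values.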

ULK2 kinase = biological target: T1, ULK2 kinase (Homo sapiens, UniProt Q8IYT8); assay: Biochemical assay for ULK2 (coupled pyruvate kinase/lactate dehydrogenase assay); settings: 1 mM ATP, 1 nM ULK2; read-out: ULK2 (inhibition of biochemical activity), IC50
T1 construct: (residues 1-306 with N-terminal GST and His tag; ID NO: 2); purchased Signal Chem U02-11G
T1 sequence (Q8IYT8 with tags, fused parts or gaps): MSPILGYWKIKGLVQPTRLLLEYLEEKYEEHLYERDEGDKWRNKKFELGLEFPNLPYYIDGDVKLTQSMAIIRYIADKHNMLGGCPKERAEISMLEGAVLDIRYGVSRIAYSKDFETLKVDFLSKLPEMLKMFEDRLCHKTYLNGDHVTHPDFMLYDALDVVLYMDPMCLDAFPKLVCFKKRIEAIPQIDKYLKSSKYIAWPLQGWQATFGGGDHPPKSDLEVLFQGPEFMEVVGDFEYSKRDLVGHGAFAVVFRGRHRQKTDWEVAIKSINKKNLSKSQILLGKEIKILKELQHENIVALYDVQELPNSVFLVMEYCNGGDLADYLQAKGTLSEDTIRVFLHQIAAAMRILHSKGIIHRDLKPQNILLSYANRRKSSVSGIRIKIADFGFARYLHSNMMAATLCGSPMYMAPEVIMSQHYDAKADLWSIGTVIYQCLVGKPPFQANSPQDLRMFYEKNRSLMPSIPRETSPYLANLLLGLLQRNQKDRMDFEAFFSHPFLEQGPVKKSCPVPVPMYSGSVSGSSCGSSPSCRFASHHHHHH
Summary of the method: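 Continuous PK/LDH-coupled NADH oxidation assay (A340) with 1 nM ULK2, 200 μM ULKtide and 1 mM ATP in Tris pH 7.5, 15 mM MgCl2, 1% DMSO, read 6 h at 30° C. Rates from the 2-3 h window converted to percent inhibition against no-compound and known-inhibitor controls; IC50 by four-parameter sigmoidal fit.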

SMILES	IC50 [1]	IC50 (ULK2 kinase)
CC/C(Nc1cnn(C2CCN(C(C)C)CC2)c1)=C1/C(=O)Nc2ccc(C(=O)NCC3CCC(C4CC4)O3)cc21 (stereo not drawn) [Example 3, (Z)—N-((5-cyclopropyltetrahydrofuran-2-yl)methyl)-3-(1-((1-(1-isopropylpiperidin-4-yl)-1H-pyrazol-4-yl)amino)propylidene)-2-oxoindoline-5-carboxamide]	0.1 to 0.3 µM	0.1 to 0.5 µM
CC/C(Nc1cnn(C(C)C)c1)=C1/C(=O)Nc2ccc(C(=O)NCC(F)(F)F)cc21 [Example 4, (Z)-3-(1-((1-isopropyl-1H-pyrazol-4-yl)amino)propylidene)-2-oxo-N-(2,2,2-trifluoroethyl)indoline-5-carboxamide]	0.1 to 0.3 µM	0.01 to 0.1 µM
CC/C(Nc1cnn(C(C)C)c1)=C1/C(=O)Nc2ccc(C(=O)NCC3(C)COC3)cc21 [Example 5, (Z)-3-(1-((1-isopropyl-1H-pyrazol-4-yl)amino)propylidene)-N-((3-methyloxetan-3-yl)methyl)-2-oxoindoline-5-carboxamide]	> 0.6 µM	0.1 to 0.5 µM
CC/C(Nc1cnn(C2CCN(C(C)C)CC2)c1)=C1/C(=O)Nc2ccc(C(=O)N(C)CC(F)(F)F)cc21 [Example 7]	≤ 0.1 µM	0.01 to 0.1 µM
CC/C(Nc1cnn(C2CCN(C(C)C)CC2)c1)=C1/C(=O)Nc2ccc(C(=O)NCC(F)(F)F)cc21 [Example 8]	≤ 0.1 µM	0.01 to 0.1 µM
CC/C(Nc1cnn(C2CCN(C(C)C)CC2)c1)=C1/C(=O)Nc2ccc(C(=O)N(C)CCOC)cc21 [Example 9]	0.3 to 0.6 µM	–
CC/C(Nc1cnn(C2CCN(C(C)C)CC2)c1)=C1/C(=O)Nc2ccc(C(=O)NCC(C)C)cc21 [Example 16]	≤ 0.1 µM	0.01 to 0.1 µM
CC/C(Nc1cnn(C2CCN(C(C)C)CC2)c1)=C1/C(=O)Nc2ccc(C(=O)NCC3CCO3)cc21 (stereo not drawn) [Example 21]	> 0.6 µM	0.01 to 0.1 µM
CC/C(Nc1cnn(C2CCN(C(C)C)CC2)c1)=C1/C(=O)Nc2ccc(C(=O)NCCC#N)cc21 [Example 26]	> 0.6 µM	0.01 to 0.1 µM
CC/C(Nc1cnn(C2CCN(C(C)C)CC2)c1)=C1/C(=O)Nc2ccc(C(=O)NCC(C)(C)OC)cc21 [Example 27]	0.1 to 0.3 µM	0.1 to 0.5 µM
CC/C(Nc1cnn(C2CCN(C(C)C)CC2)c1)=C1/C(=O)Nc2ccc(C(=O)NCC(C)(C)O)cc21 [Example 28]	> 0.6 µM	0.01 to 0.1 µM
CC/C(Nc1cnn(C2CCN(C(C)C)CC2)c1)=C1/C(=O)Nc2ccc(C(=O)NC3CC(F)(F)C3)cc21 [Example 29]	0.3 to 0.6 µM	0.01 to 0.1 µM
CC/C(Nc1cnn(C2CCN(C(C)C)CC2)c1)=C1/C(=O)Nc2ccc(C(=O)NCC3CC(F)(F)C3)cc21 [Example 30]	0.1 to 0.3 µM	≤ 0.01 µM
CC/C(Nc1cnn(C2CCN(C(C)C)CC2)c1)=C1/C(=O)Nc2ccc(C(=O)NCCC(F)(F)F)cc21 [Example 31]	≤ 0.1 µM	≤ 0.01 µM
CC/C(Nc1cnn(C2CCN(C3CCOCC3)CC2)c1)=C1/C(=O)Nc2ccc(C(=O)NCC(C)C)cc21 [Example 37]	≤ 0.1 µM	0.01 to 0.1 µM
CC/C(Nc1cnn(C2CCN(C(C)C)CC2)c1)=C1/C(=O)Nc2ccc(C(=O)NCC3CC3)cc21 [Example 42]	≤ 0.1 µM	0.01 to 0.1 µM
CC/C(Nc1cnn(C2CCN(C(C)C)CC2)c1)=C1/C(=O)Nc2ccc(C(=O)NCC3CCCC3)cc21 [Example 44]	≤ 0.1 µM	≤ 0.01 µM
CC/C(Nc1ccc(N2CCN(C(C)C)CC2)cc1)=C1/C(=O)Nc2ccc(C(=O)NC[C@H]3CCCO3)cc21 [Example 47]	≤ 0.1 µM	0.01 to 0.1 µM
CC/C(Nc1cnn(C2CCN(C)CC2)c1)=C1/C(=O)Nc2ccc(C(=O)NC[C@H]3CCCO3)cc21 [Example 51]	> 0.6 µM	0.01 to 0.1 µM
CC/C(Nc1cnn(C2CCNCC2)c1)=C1/C(=O)Nc2ccc(C(=O)NC[C@H]3CCCO3)cc21 [Example 52]	> 0.6 µM	0.01 to 0.1 µM
CC/C(Nc1cnn(C2CC3CCC(C2)N3C)c1)=C1/C(=O)Nc2ccc(C(=O)NC[C@H]3CCCO3)cc21 (stereo partly drawn) [Example 53]	> 0.6 µM	0.01 to 0.1 µM
CC/C(Nc1cnn(C2CN(C)C2)c1)=C1/C(=O)Nc2ccc(C(=O)NC[C@H]3CCCO3)cc21 [Example 54]	0.3 to 0.6 µM	0.01 to 0.1 µM
CC/C(Nc1cnn(C)c1)=C1/C(=O)Nc2ccc(C(=O)NC[C@H]3CCCO3)cc21 [Example 55]	0.1 to 0.3 µM	0.1 to 0.5 µM
CC/C(Nc1cnn(C2CCN(C(C)C)CC2)c1)=C1/C(=O)Nc2ccc(C(=O)NC[C@@H](C)OC)cc21 [Example 58]	0.1 to 0.3 µM	0.1 to 0.5 µM

SMILES	IC50 [1]	IC50 (ULK2 kinase)
CC/C(Nc1ccc(N2CC3CC(C2)N3C)cc1)=C1/C(=O)Nc2ccc(C(=O)NCC(F)(F)F)cc21 [Example 60]	≤ 0.1 µM	0.01 to 0.1 µM
CC/C(Nc1ccc(N2C[C@H]3CN(C)C[C@H]3C2)cc1)=C1/C(=O)Nc2ccc(C(=O)NCC(F)(F)F)cc21 [Example 61]	≤ 0.1 µM	0.01 to 0.1 µM
CC/C(Nc1ccc(N2CC3(CN(C)C3)C2)cc1)=C1/C(=O)Nc2ccc(C(=O)NCC(F)(F)F)cc21 [Example 62]	0.1 to 0.3 µM	0.01 to 0.1 µM
CC/C(Nc1ccc(N2CCN(C(C)C)CC2)cn1)=C1/C(=O)Nc2ccc(C(=O)NC[C@H]3CCCO3)cc21 [Example 93]	≤ 0.1 µM	0.01 to 0.1 µM
CC/C(Nc1cnc(N2CCN(C(C)C)CC2)cn1)=C1/C(=O)Nc2ccc(C(=O)NCC(F)(F)F)cc21 [Example 94]	0.1 to 0.3 µM	0.01 to 0.1 µM
CC/C(Nc1cnn(C(C)C)c1)=C1/C(=O)Nc2ccc(C(=O)NC[C@H]3CCCO3)cc21 [Example 95]	≤ 0.1 µM	0.01 to 0.1 µM
CC/C(Nc1cnn(C2CCN(C(C)C)CC2)c1)=C1/C(=O)Nc2ccc(C(=O)NCCOC)cc21 [Example 98]	0.3 to 0.6 µM	0.1 to 0.5 µM
CC/C(Nc1ccc(N2CCN(C(C)C)CC2)cc1)=C1/C(=O)Nc2cc(F)c(C(=O)NCC(F)(F)F)cc21 [Example 100]	0.3 to 0.6 µM	0.1 to 0.5 µM
C/C(Nc1cnn(C(C)C)c1)=C1/C(=O)Nc2ccc(C(=O)NCC(F)(F)F)cc21 [Example 101]	≤ 0.1 µM	0.01 to 0.1 µM
CC/C(Nc1cnn(CCOC)c1)=C1/C(=O)Nc2ccc(C(=O)NCC(F)(F)F)cc21 [Example 102]	0.1 to 0.3 µM	0.01 to 0.1 µM
CC/C(Nc1cnn(CCN(C)C)c1)=C1/C(=O)Nc2ccc(C(=O)NCC(F)(F)F)cc21 [Example 103]	0.3 to 0.6 µM	0.01 to 0.1 µM
CC/C(Nc1cnn([C@H]2CCOC2)c1)=C1/C(=O)Nc2ccc(C(=O)NCC(F)(F)F)cc21 [Example 104]	≤ 0.1 µM	0.01 to 0.1 µM
CC/C(Nc1cnn([C@@H]2CCOC2)c1)=C1/C(=O)Nc2ccc(C(=O)NCC(F)(F)F)cc21 [Example 105]	≤ 0.1 µM	0.01 to 0.1 µM
CC/C(Nc1cnn(C2CCOCC2)c1)=C1/C(=O)Nc2ccc(C(=O)NCC(F)(F)F)cc21 [Example 106]	0.1 to 0.3 µM	0.01 to 0.1 µM
CC/C(Nc1cnn(CC)c1)=C1/C(=O)Nc2ccc(C(=O)NCC(F)(F)F)cc21 [Example 107]	≤ 0.1 µM	0.01 to 0.1 µM
CC/C(Nc1cn[nH]c1)=C1/C(=O)Nc2ccc(C(=O)NCC(F)(F)F)cc21 [Example 108]	> 0.6 µM	0.01 to 0.1 µM
CC/C(Nc1cnn(C(C)C)c1)=C1/C(=O)Nc2ccc(C(=O)NCC(F)F)cc21 [Example 112]	≤ 0.1 µM	0.01 to 0.1 µM
CC/C(Nc1cnn(C(F)(F)F)c1)=C1/C(=O)Nc2ccc(C(=O)NCC(F)(F)F)cc21 [Example 113]	0.1 to 0.3 µM	0.01 to 0.1 µM
CC/C(Nc1cnn(C(F)F)c1)=C1/C(=O)Nc2ccc(C(=O)NCC(F)(F)F)cc21 [Example 114]	0.1 to 0.3 µM	0.01 to 0.1 µM
CC/C(Nc1cnn(C2CC2)c1)=C1/C(=O)Nc2ccc(C(=O)NCC(F)(F)F)cc21 [Example 116]	≤ 0.1 µM	0.01 to 0.1 µM
CC/C(Nc1cnn(C2CCC2)c1)=C1/C(=O)Nc2ccc(C(=O)NCC(F)(F)F)cc21 [Example 117]	≤ 0.1 µM	≤ 0.01 µM
CC/C(Nc1cnn(C2COC2)c1)=C1/C(=O)Nc2ccc(C(=O)NCC(F)(F)F)cc21 [Example 118]	0.3 to 0.6 µM	0.01 to 0.1 µM
CC/C(Nc1cnn(C(C)C)c1)=C1/C(=O)Nc2ccc(C(=O)N[C@H](C)C(F)(F)F)cc21 [Example 119]	≤ 0.1 µM	0.01 to 0.1 µM
